In US7504517B2, “Kv1.5 potassium channel inhibitors” (Wyeth, priority 2006, dated 2009):

Assays:
Kv1.5 = target: T1, Kv1.5 (Homo sapiens, UniProt P22460); assay: Kv1.5 Patch Clamp EP; assay type: cell-based; details: whole cell patch clamp; for IC50: HEK or LTK- cells, at least four concentrations, n=3
T1 construct: expressed in transfected cells; host or cells: HEK or LTK- cells
Description: The external solution is standard Tyrodes solution. […] Inhibition was measured at the end of the 1 second pulses and expressed relative to controls. Initial Kv1.5 inhibition is estimated by single point determinations done at 1 μM.

L-type calcium channels = assay: FLIPR L-Type Calcium Channel Assay; assay type: cell-based, murine; details: HL-1 cells expressing endogenous L-type calcium channels; calcium influx after 20 mM KCl; read-out: L-type Ca^2+ IC50
In short: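 After a 15 min compound pre-incubation at 37 °C with 2.5 mM probenecid, L-type channels were opened by depolarising with 20 mM KCl (final). Fluorescence (488 nm excitation, 510–570 nm emission) was read for 5 min.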

HERG [1] = target: T2, HERG (Homo sapiens, UniProt Q12809)
HERG [2] = target: T2, HERG; assay: HERG Patch Clamp EP; details: for inhibition at 10 µM: human, HEK cells stably overexpressing HERG
[3] = 1.0 μM, single point, Kv1.5 stably over expressed in HEK or LTK- cells

T1 sequence (P22460 whole entry): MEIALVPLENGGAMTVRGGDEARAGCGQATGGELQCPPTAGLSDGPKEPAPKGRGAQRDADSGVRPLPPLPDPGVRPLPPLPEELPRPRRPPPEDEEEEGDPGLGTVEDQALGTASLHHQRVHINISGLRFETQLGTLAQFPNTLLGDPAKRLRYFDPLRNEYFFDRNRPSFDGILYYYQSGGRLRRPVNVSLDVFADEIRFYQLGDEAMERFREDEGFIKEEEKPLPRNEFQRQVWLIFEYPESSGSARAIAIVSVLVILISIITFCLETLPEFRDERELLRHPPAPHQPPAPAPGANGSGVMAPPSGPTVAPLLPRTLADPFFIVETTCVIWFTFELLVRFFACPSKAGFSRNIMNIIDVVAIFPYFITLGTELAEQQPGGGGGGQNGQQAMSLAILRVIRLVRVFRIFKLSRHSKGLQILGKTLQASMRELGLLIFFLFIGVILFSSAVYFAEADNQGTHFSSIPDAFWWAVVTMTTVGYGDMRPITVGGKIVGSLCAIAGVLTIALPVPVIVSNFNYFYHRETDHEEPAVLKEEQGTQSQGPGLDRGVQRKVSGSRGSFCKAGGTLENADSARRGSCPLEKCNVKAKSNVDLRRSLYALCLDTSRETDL
T2 sequence (Q12809 whole entry): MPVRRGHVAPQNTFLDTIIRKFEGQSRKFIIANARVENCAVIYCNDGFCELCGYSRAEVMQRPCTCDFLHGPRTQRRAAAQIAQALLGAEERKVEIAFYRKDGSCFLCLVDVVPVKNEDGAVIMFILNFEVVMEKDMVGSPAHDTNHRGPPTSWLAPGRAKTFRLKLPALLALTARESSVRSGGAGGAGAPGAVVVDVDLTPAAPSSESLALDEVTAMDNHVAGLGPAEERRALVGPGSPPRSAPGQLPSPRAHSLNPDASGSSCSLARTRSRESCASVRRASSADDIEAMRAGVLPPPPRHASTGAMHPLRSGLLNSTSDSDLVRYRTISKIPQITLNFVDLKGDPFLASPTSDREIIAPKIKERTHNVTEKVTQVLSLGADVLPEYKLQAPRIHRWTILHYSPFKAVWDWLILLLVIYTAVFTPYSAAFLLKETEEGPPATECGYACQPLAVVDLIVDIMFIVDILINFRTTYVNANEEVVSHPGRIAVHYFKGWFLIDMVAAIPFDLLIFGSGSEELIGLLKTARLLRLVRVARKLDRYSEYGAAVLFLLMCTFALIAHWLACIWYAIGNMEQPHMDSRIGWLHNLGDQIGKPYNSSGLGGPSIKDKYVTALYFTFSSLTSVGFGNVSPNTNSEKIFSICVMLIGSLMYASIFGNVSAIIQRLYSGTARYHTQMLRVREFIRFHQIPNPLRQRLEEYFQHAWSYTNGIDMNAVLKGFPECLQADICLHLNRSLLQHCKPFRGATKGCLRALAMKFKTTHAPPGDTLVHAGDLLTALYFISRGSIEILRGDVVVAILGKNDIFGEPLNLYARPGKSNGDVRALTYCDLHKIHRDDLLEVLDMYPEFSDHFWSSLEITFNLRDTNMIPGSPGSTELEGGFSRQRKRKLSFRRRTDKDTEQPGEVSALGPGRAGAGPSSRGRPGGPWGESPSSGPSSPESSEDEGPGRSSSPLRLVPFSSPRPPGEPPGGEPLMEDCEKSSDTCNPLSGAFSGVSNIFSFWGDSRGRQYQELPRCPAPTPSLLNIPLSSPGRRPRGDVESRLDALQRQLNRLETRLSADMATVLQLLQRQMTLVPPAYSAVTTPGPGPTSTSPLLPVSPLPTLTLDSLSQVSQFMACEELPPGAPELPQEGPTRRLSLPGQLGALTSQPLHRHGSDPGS

Kv1.5% inhibition @ 1.0 μM (Kv1.5; [3]) | IC50 (L-type calcium channels) | inhibition at 1 µM (Kv1.5; [3]) | IC50 (Kv1.5) | Compound | HERG % Inhib. @ 10 μM (HERG [1]) | IC50 (HERG [2]) | inhibition at 10 µM (HERG [2])
77% | 20 µM | – | – | 1-(Methoxycarbonylamino)-3-[2-(4-methoxyphenyl)ethyl]-4-[4-(tert-butyl)phenyl]-2-imidazolidinone [Compound 80] | 51% | – | –
– | 30 µM | 95% | 0.353 µM | COc1ccc(CCN2C(=O)N(NCc3ccc(N(C)C)cc3)CC2c2ccc(C)c(C)c2)cc1 (stereo not shown) [Compound 92, 1-[(4-(Dimethylamino)phenylmethyl)amino]-3-[2-(4-methoxyphenyl)ethyl]-4-(3,4-dimethylphenyl)-2-imidazolidinone] | – | 5.6 µM | 58%
– | 13 µM | 67% | – | COc1ccc(CCN2C(=O)N(NCc3cccnc3)CC2c2ccc(C)c(C)c2)cc1 (stereo not shown) [Compound 94, 1-[(Pyridin-3-ylmethyl)amino]-3-[2-(4-methoxyphenyl)ethyl]-4-(3,4-dimethylphenyl)-2-imidazolidinone] | – | – | 35%
– | 1.9 µM | 86% | – | COc1ccc(CCN2C(=O)N(NCc3cnc4ccccc4c3)CC2c2ccc(C)c(C)c2)cc1 (stereo not shown) [Compound 96, 4-(3,4-Dimethylphenyl)-3-[2-(4-methoxyphenyl)ethyl]-1-[(quinolin-3-ylmethyl)-amino]-2-imidazolidinone] | – | – | 87%
– | 4.9 µM | 73% | – | COc1ccc(CCN2C(=O)N(N(CCn3ccnc3)C(=O)C(C)C)CC2c2ccc(C(C)(C)C)cc2)cc1 (stereo not shown) [Compound 99, 1-N-[2-(Imidazol-1-yl)ethyl]-N-[iso-butyroyl]amino-3-[2-(4-methoxyphenyl)-ethyl]-4-[(4-tert-butyl)phenyl]-2-imidazolidinone] | – | – | 90%
– | 16 µM | 46% | – | COc1ccc(CCN2C(=O)N(N(CCn3ccnc3)C(C)=O)CC2c2ccc(C(C)(C)C)cc2)cc1 (stereo not shown) [Compound 100, 1-N-[2-(Imidazol-1-yl)ethyl]-N-[acetyl]amino-3-[2-(4-methoxyphenyl)ethyl]-4-[(4-tert-butyl)phenyl]-2-imidazolidinone] | – | – | 92%
– | 19 µM | 81% | – | COc1ccc(C2CN(NS(=O)(=O)Cc3cccnc3)C(=O)N2CCCc2ccccc2)cc1 (stereo not shown) [Compound 101, 1-[(Pyridin-3-yl)methylsulfonyl]amino-3-(3-phenylpropyl)-4-(4-methoxyphenyl)-2-imidazolidinone] | – | – | 24%
– | 21 µM | 87% | – | COc1ccc(CCCN2C(=O)N(NS(=O)(=O)CC(N)=O)CC2c2ccc(C3CC3)cc2)cc1 (stereo not shown) [Compound 104, 1-[(2-Amino-2-oxoethyl)sulfonylamino]-3-[3-(4-methoxyphenyl)propyl]-4-(4-cyclopropylphenyl)-2-imidazolidinone] | – | – | 56%
– | 30 µM | 74% | 0.474 µM | COc1ccc(CCN2C(=O)N(NS(C)(=O)=O)C[C@H]2c2ccc(OC)cc2)cc1 [Compound 106, 1-(Methylsulfonylamino)-3-[2-(4-methoxyphenyl)ethyl]-4-(R)-(4-methoxyphenyl)-2-imidazolidinone] | – | 35 µM | 17%
– | 39 µM | 41% | 1.1 µM | COc1ccc(CCN2C(=O)N(NS(C)(=O)=O)C[C@@H]2c2ccc(OC)cc2)cc1 [Compound 107, N-{(4S)-4-(4-methoxyphenyl)-3-[2-(4-methoxyphenyl)ethyl]-2-oxoimidazolidin-1-yl}methanesulfonamide] | – | 54 µM | –
– | 15 µM | 75% | – | COc1ccc(CCN2C(=O)N(NS(=O)(=O)CCS(C)(=O)=O)CC2c2ccc(C3CC3)cc2)cc1 (stereo not shown) [Compound 114, N-{4-(4-cyclopropylphenyl)-3-[2-(4-methoxyphenyl)ethyl]-2-oxoimidazolidin-1-yl}-2-(methylsulfonyl)ethanesulfonamide] | – | – | 55%
– | 2 µM | 80% | – | COc1ccc(CCCN2C(=O)N(N)CC2c2ccc(C(C)(C)C)cc2)cc1 (stereo not shown) [Compound 119, 1-amino-4-(4-tert-butylphenyl)-3-[3-(4-methoxyphenyl)propyl]imidazolidin-2-one] | – | – | 70%
– | 19 µM | 91% | – | COc1ccc(CCCN2C(=O)N(NS(=O)(=O)CS(C)(=O)=O)CC2c2ccc(C3CC3)cc2)cc1 (stereo not shown) [Compound 127, N-{4-(4-cyclopropylphenyl)-3-[3-(4-methoxyphenyl)propyl]-2-oxoimidazolidin-1-yl}-1-(methylsulfonyl)methanesulfonamide] | – | – | 54%
– | 15 µM | 83% | – | COc1ccc(CCN2C(=O)N(N(CCn3ccnc3)C(=O)OC(C)(C)C)CC2c2ccc(C(C)(C)C)cc2)cc1 (stereo not shown) [Compound 146, tert-butyl {4-(4-tert-butylphenyl)-3-[2-(4-methoxyphenyl)ethyl]-2-oxoimidazolidin-1-yl}[2-(1H-imidazol-1-yl)ethyl]carbamate] | – | – | 86%
– | 30 µM | 49% | – | COc1ccc(CCN2C(=O)N(NS(C)(=O)=O)C[C@H]2c2ccc(OC(F)F)cc2)cc1 [Compound 170, N-{(4R)-4-[4-(difluoromethoxy)phenyl]-3-[2-(4-methoxyphenyl)ethyl]-2-oxoimidazolidin-1-yl}methanesulfonamide] | – | – | 62%
– | 30 µM | 71% | 0.531 µM | COc1ccc(CCN2C(=O)N(NS(C)(=O)=O)C[C@@H]2c2ccc(OC(F)F)cc2)cc1 [Compound 171, N-{(4S)-4-[4-(difluoromethoxy)phenyl]-3-[2-(4-methoxyphenyl)ethyl]-2-oxoimidazolidin-1-yl}methanesulfonamide] | – | 5.8 µM | 55%
– | 9.8 µM | 55% | – | COc1ccc(CCN2C(=O)N(NS(C)(=O)=O)C[C@H]2c2ccc(C(C)(C)C)cc2)cc1 [Compound 172, N-{(4R)-4-(4-tert-butylphenyl)-3-[2-(4-methoxyphenyl)ethyl]-2-oxoimidazolidin-1-yl}methanesulfonamide] | – | – | 51%
– | 14.6 µM | 94% | – | COc1ccc(CCN2C(=O)N(NS(C)(=O)=O)C[C@@H]2c2ccc(C(C)(C)C)cc2)cc1 [Compound 173, N-{(4S)-4-(4-tert-butylphenyl)-3-[2-(4-methoxyphenyl)ethyl]-2-oxoimidazolidin-1-yl}methanesulfonamide] | – | – | 48%
